# Test results reported in patent US7358221B1, “Metathesis depolymerizable surfactants” (Sandia Corporation, priority 2004, dated 2008).
# Tests used:
# [1] = Ring-closing metathesis degradation followed by 1H NMR in chloroform; assay type: physicochemical; details: 2 mol. % RuCl2[C21H26N2][CHC6H5]P(C6H11)3 (2nd generation Grubbs catalyst), 25° C.
# Text: Decomposition of these surfactant molecules takes place by the action of a ring closing metathesis-active transition metal catalyst on the tail portion of the surfactant, as illustrated in FIG. 8. It is believed that initiation of the decomposition reaction produces styrene. Intramolecular reaction of double bonds further up the tail group produces cyclohexene faster than cross-metathesis with another surfactant.
# Cyclohexene formation is clearly evident in the solution within five minutes of adding the catalyst, as evidenced by the appearance of broad singlets at δ=1.62 and 1.97 ppm and a characteristic singlet at δ=5.67 ppm.
# ^1H NMR also indicates the presence of the former head group as 7-(N,N,N-trimethylammonium)hept-1-enyl iodide (unchanged chemical shift at δ=3.48 ppm from starting surfactant 4) as well as the cross-coupled product, cis/trans-1,12-bis(trimethylammonium)dodec-6-enyl diiodide (equivalent methyls at δ=3.43 ppm).
# Within 5 minutes after the introduction of catalyst, cyclohexene was clearly present in solution as evidenced by the appearance of broad singlets at δ=1.62 and 1.97 ppm and a characteristic singlet at δ=5.67 ppm (see FIG. 10).
# Additionally, peaks clearly assignable to allyl malonic acid (δ=5.12-5.22 ppm, δ=3.57 ppm, δ=2.68 ppm) were present, by comparison with an authentic sample. […]
# [2] = Critical micelle concentration by dynamic surface tension (surface tensiometry); assay type: physicochemical; details: equilibrium mode, aqueous solution
# Text: FIGS. 5 and 6 also show the response of dynamic surface tension values (operated in equilibrium mode) measured as a function of concentration for surfactants 4 and the anionic salt 7 in aqueous solution. The physicochemical properties of a surfactant change to a significant degree after reaching the cmc due to the presence of micelles and a surfactant-saturated air-water interface.
# A comprehensive listing of all the physicochemical properties calculated for these surfactants is shown above in Table 1.
# The surfactant concentration at the intersection of the two lines which are least-squares fit to (1) the rapidly changing surface tension readings and (2) the low, relatively constant surface tension readings at high surfactant concentrations defines the cmc by this method. The cmc's calculated from the surface tension data of surfactants 4 and 7 are 1.9 mmol and 5.9 mmol, respectively. The higher values for cmc as determined by dynamic surface tension compared to Orange OT dye solubilization can be attributed to static (dye solubilization) vs. dynamic (surface tension) measurements of the microenvironment.
Compound,time to nearly complete decomposition [1] [min],cmc as determined by surface tensiometry [2] [mmol]
"C=CCCCCC=CCCCCC=CCCCCC[N+](C)(C)C.[I-] [Surfactant 4, trimethylnonadeca-6,12,18-trienylammonium iodide]",≤ 60,1.9
"dipotassium heneicosa-2,8,14,20-tetraenyl malonate [Surfactant 7]",,5.9
